Assay results as given in PMC8294944 (Journal of agricultural and food chemistry, 2020).
Where two headings read alike, the source gives them in different places.

What was measured:
[1] = target: T1, ERα (Ishikawa endometrial carcinoma cells) (Homo sapiens, UniProt P03372); assay: Estrogen-responsive alkaline phosphatase assay in ERα positive Ishikawa cells; format: cell-based; conditions: for Emax: Ishikawa, read-out: ERα Maximum efficacy
T1 sequence (P03372 1-595): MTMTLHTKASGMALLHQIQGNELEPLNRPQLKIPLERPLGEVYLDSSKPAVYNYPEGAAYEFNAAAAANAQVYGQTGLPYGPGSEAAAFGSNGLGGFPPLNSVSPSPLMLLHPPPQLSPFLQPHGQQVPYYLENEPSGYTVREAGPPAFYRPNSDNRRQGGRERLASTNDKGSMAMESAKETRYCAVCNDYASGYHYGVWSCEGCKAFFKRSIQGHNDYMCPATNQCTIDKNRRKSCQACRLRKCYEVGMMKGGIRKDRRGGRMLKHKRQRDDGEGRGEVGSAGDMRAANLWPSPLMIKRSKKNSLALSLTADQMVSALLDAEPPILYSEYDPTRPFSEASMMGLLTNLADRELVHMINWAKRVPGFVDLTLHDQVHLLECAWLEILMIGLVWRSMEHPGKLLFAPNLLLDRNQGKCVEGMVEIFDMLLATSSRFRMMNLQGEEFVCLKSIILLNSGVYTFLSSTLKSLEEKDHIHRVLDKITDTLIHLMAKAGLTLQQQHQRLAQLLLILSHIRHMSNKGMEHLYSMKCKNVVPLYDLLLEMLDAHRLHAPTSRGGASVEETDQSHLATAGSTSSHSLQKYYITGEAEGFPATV

[2] = target: T1, ERα (Ishikawa endometrial carcinoma cells); conditions: read-out: ERα EC50 (LigF); compared with 8-PA; cited from earlier work
[3] = target: purified full length human recombinant ERβ (Homo sapiens, UniProt Q92731); assay: ERβ competitive binding assay
[4] = target: T2, purified full length human recombinant ERα (Homo sapiens, UniProt P03372); assay: ERα competitive binding assay
T2 sequence (P03372 1-595): T1 sequence (P03372 1-595)

uterine tissue = conditions: 8-PN in dietary concentrations; cited from earlier work
[5] = alkaline phosphatase, Ishikawa cells, mean ± SEM
[6] = read-out: ERα EC50 (compounds), alkaline phosphatase, Ishikawa cells, mean ± SEM
[7] = relative to 17β-E2, [3H]-E2 tracer 20 nM

Chain of purified full length human recombinant ERβ (Q92731 whole entry): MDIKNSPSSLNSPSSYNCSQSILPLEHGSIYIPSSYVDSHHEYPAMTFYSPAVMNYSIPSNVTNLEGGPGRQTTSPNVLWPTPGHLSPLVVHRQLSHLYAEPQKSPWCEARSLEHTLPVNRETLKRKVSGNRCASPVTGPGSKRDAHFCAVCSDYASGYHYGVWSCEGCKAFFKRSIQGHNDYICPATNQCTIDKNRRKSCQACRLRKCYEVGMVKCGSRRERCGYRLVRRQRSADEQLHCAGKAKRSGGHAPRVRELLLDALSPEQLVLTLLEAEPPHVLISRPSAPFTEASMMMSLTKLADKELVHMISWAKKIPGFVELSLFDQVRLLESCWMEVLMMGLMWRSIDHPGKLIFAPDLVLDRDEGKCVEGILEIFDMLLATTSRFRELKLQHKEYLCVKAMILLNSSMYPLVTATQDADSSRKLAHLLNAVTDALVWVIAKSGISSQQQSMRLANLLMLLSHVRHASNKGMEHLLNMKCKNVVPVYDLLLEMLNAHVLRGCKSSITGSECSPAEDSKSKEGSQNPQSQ

| Compound | ERα Maximum efficacy [1, 5] | EC50 [1, 6] | ERβ % RBA (relative binding affinity = IC50 E2/IC50 (iso)flavonoid x100) [3, 7] | ERα % RBA (relative binding affinity = IC50 E2/IC50 (iso)flavonoid x100) [4, 7] | EC50 [1] | Emax [1] | other results |
| --- | --- | --- | --- | --- | --- | --- | --- |
| CC(C)=CCc1c(O)cc(O)c2c(=O)c(O)c(-c3ccc(O)cc3)oc12 [DMI, Desmethylicaritin] | 67 ± 12 | 200 ± 20 nM | – | – | – | – | – |
| O=C1C[C@@H](c2ccc(O)cc2)Oc2cc(O)ccc21 [LigF, liquiritigenin] | – | – | – | – | – | – | EC50 [2]: 3400 nM |
| Dehydrogenistein [DGN] | 84 ± 4.0 | 800 ± 100 nM | 14% | <0.002% | – | – | – |
| CC(C)=CCc1c(O)cc(O)c2c(=O)c(-c3ccc(O)cc3)coc12 [8-PG, 8-Prenylgenistein] | – | – | 0.9% | <0.002% | 500 ± 200 nM | 49 ± 10% | – |
| O=C1C[C@@H](c2ccc(O)cc2)Oc2cc(O)cc(O)c21 [NRG, naringenin] | – | – | – | – | 3700 ± 500 nM | 69 ± 6% | ERβ % RBA (relative binding affinity = IC50 E2/IC50 (iso)flavonoid x100) [3]: 0.05%; ERα % RBA (relative binding affinity = IC50 E2/IC50 (iso)flavonoid x100) [4]: <0.002% |
| CC(C)=CCc1c(O)cc(O)c2c1O[C@H](c1ccc(O)cc1)CC2=O [8-PN, 8-Prenylnaringenin] | – | – | – | – | – | – | Effect on uterine weight (uterine tissue): increased uterine weight |
